According to patent publication US20230192700A1, “PYRAZOLOPYRAZINES ACTING ON CANCERS VIA INHIBITION OF CDK12” (Bayer Aktiengesellschaft, priority 2020, published 2023):

Legend:
[1] = system: BRCA1 mRNA expression in CAL-120 cells; test: qRT-PCR assay: inhibition of BRCA1 mRNA expression in CAL-120 cells; format: cell-based; conditions: Homo sapiens, median, read-out: RTqPCR-CAL-120 IC50 [mol/l] BRCA1 (median)
Procedure: (§1) 3. qRT-PCR Assay: BRCA1, ATR, MCL1 in MDA-MB-231, CAL-120
(§2) Tissue cultured human MDA-MB-231 human breast cancer cells were plated in 500 microL per well at 200,000 cells/well in a 24 well microtiter plate. After 24 h, the cells were exposed continuously for 24 h to test substances (substances were added with Tecan HP D300 Dispenser). RNA was prepared using Qiagen RNeasy MiniKit (#74106), RNA was quantified using a NanoDrop Equipment, and 600 nano gamms of RNA was coverted to cDNA using a SuperScript VILO kit (Thermofisher #11755050) followed by qPCR amplification. BRCA1 and ATR gene expression was measured by RT-qPCR and normalised to GAPDH housekeeping gene expression. qPCR primer sets have been purchased from Thermo Fisher Scientific/Applied Biosystems: BRCA1, # Hs 01556193; ATR, #Hs 00992123; GAPDH, #Hs 03929097.

[2] = biological target: T1, CDK12 (Homo sapiens, UniProt Q9NYV4); test: CDK12 protein level in CAL-120 cells (Protein Simple); format: cell-based; conditions: 18 h, CDK12/HSP90 peak area ratio, median, read-out: CDK12 protein level in CAL-120 breast ca cells DC50 - [mol/l] (median)
T1 construct: endogenous in cells; host or cells: CAL-120 human breast cancer cells (DSMZ ACC 459)
T1 sequence (Q9NYV4 whole entry): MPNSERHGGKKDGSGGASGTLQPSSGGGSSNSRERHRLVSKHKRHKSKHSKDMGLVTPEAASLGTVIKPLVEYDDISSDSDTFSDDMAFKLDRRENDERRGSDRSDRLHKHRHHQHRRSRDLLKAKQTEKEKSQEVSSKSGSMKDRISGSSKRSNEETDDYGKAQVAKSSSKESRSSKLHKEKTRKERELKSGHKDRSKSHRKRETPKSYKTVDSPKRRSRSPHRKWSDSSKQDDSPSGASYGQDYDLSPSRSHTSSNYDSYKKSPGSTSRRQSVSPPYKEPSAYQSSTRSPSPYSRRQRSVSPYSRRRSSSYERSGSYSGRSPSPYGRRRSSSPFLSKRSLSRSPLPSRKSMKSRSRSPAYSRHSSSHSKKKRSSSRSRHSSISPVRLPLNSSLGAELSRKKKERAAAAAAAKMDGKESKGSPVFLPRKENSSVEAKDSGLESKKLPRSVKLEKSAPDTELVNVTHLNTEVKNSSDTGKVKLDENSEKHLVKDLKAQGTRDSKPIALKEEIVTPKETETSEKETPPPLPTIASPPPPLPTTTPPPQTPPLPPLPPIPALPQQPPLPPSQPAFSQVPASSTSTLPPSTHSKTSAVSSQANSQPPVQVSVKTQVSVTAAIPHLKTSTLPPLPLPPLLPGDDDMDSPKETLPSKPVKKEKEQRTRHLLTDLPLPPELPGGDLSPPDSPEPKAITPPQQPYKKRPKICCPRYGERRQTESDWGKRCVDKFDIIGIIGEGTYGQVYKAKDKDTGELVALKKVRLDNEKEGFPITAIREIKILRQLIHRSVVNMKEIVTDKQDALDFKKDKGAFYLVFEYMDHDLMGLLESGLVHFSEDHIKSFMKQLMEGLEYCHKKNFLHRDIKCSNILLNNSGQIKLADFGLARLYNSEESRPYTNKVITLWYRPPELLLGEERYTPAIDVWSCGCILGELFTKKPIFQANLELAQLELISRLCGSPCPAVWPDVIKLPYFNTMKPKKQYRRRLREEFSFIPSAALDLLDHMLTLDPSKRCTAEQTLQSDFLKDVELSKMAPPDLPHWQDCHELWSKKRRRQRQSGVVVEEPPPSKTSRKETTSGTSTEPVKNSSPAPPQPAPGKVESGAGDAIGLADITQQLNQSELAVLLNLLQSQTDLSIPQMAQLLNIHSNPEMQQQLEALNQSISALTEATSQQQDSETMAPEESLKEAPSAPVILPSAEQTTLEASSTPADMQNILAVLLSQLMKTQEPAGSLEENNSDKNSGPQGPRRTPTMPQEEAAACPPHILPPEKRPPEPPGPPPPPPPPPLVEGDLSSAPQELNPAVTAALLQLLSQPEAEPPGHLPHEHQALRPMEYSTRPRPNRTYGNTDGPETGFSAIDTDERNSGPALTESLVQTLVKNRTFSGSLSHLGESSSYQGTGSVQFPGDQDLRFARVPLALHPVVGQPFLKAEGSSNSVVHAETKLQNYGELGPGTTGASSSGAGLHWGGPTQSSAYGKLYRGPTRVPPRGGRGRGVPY
T1 sequence (O75909 whole entry partner): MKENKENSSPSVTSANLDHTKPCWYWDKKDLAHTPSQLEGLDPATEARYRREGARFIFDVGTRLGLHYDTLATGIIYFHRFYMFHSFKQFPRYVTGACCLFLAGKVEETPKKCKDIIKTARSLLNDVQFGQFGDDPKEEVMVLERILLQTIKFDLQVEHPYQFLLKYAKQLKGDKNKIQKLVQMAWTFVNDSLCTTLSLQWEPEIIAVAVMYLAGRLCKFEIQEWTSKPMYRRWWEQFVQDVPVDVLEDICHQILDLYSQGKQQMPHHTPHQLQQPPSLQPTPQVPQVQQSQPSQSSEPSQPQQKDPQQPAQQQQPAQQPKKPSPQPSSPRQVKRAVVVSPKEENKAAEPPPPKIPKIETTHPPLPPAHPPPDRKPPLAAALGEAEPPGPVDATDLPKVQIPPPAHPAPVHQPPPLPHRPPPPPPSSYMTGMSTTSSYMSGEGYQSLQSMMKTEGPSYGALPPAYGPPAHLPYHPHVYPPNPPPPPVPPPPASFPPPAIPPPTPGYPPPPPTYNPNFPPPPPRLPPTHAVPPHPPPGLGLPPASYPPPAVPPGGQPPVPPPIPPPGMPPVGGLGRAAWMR
Procedure: 5. CDK12 protein level: Protein Simple (CDK12, CAL-120), Westernblot (CDK9, 12, 13)
CAL-120 human breast cancer cells (DSMZ ACC 459) were seeded at 300,000 cells/well in 6-well plates containing 2 mL of growth medium (DMEM, 10%FCS, glutamine) and incubated for 24 h at 37° C. in an humidified incubator. Test compounds were added at various concentrations, control wells received solvent (DMSO), and the plates were incubated for another 18h at 37° C. Cells were washed 2 times with PBS and lysed in 75 microL lysis buffer (MSD-Puffer (MSD, #R6OTX-2), +1% SDS+PhosSTOP (Roche #04906837001)+complete mini (Roche #04693159001)) by scraping. The lysates were pushed 2 times through Qiashedders followed by centrifugation at 14,000 rpm for 30-50 sec. The supernatant was stored at -20° C. […] CDK12 and HSP90 (loading control) were detected using anti-human CDK12 antibody (Cell Signaling Technologies (CST) #11793) at 1:25 dilution and anti-human HSP90 antibody (CST #4877) at 1:5,000 dilution. CDK12 and HSP90 peak areas were determined using Protein Simple Compass software. Ratio of CDK12/HSP90 peak areas were calculated for each sample, and DC50 values (degrading concentration to achieve 50% reduction relative to vehicle treated control) were determined by means of a 4 parameter fit.

[3] = system: BRCA1 mRNA expression in MDA-MB-231 cells; test: qRT-PCR assay: inhibition of BRCA1 mRNA expression in MDA-MB-231 cells; format: cell-based, human; conditions: Homo sapiens, MDA-MB-231, 24 h, 24 h exposure, BRCA1 mRNA normalised to GAPDH, median, read-out: RTqPCR-MDA-MB-231 IC50 [mol/l] BRCA1 (median)
Procedure: as §1, §2

[4] = biological target: T2, CDK9/CyclinT1 (Homo sapiens, UniProt P50750); test: CDK9/CycT1 high ATP kinase assay (TR-FRET); format: biochemical; conditions: 2 mM ATP (high ATP); median; read-out: CDK9/CyclinT1, 2 mM ATP (high ATP) IC50 - [mol/l] (median)
T2 construct: Recombinant full-length His-tagged human CDK9 and CycT1; His-tag; purchased Life Technologies PV4131; host or cells: insect cells
T2 sequence (P50750 whole entry): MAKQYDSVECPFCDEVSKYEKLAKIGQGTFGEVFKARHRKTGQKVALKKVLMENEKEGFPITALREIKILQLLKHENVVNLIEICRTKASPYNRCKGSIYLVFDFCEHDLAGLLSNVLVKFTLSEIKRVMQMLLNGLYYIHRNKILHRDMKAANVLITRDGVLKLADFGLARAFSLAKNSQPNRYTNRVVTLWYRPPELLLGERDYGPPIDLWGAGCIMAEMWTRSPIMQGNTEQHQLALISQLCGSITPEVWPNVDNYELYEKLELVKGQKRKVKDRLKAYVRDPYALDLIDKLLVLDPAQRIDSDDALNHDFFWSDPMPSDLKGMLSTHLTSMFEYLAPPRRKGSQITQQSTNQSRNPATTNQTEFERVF
T2 sequence (O60563 whole entry partner): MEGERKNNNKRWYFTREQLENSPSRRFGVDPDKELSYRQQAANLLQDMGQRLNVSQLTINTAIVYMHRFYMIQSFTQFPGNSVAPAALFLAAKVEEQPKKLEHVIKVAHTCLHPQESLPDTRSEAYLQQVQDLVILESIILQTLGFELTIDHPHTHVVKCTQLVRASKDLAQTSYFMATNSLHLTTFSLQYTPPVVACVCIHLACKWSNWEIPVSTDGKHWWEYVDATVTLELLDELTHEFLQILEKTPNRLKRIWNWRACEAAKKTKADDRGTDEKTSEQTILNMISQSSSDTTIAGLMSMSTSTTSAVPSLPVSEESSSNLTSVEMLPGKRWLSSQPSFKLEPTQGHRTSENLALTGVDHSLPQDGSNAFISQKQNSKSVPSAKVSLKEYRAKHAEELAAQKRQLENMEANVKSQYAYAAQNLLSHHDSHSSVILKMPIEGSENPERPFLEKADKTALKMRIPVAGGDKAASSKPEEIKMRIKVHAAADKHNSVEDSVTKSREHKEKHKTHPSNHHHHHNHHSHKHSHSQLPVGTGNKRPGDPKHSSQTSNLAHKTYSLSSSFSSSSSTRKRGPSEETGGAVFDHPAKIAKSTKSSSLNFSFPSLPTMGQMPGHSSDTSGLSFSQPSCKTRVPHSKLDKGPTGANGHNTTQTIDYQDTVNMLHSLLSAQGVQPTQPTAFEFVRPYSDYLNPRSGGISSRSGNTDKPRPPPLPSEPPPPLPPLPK
In short: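 Full-length His-tagged human CDK9/CycT1 (insect cell) at ~0.5 µg/mL, preincubated with compound 15 min at 22 °C in Tris pH 8.0 buffer, then reacted 25 min with 2 mM ATP and 0.75 µM biotinylated peptide (final). Phospho-substrate detected by TR-FRET (anti-RB pSer807/811, Eu/XL665), 665/620 nm ratio normalised to no-inhibitor and no-enzyme controls.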

Row | IC50 [1] [µM] | DC50 [2] [µM] | IC50 [4] [µM] | Structure (SMILES) | IC50 [3] [µM]
1 | 0.0643 | 0.0311 | > 20 | c1ccc2[nH]c(CNc3nn(C4CCOCC4)c4nc(C5CC5)cnc34)nc2c1 [Example 16, N-[(1H-benzimidazol-2-yl)methyl]-6-cyclopropyl-1-(oxan-4-yl)-1H-pyrazolo[3,4-b]pyrazin-3-amine] | 0.0129
2 | – | – | > 20 | O[C@H]1C[C@H](n2nc(NCc3nc4ccccc4[nH]3)c3ncc(C4CC4)nc32)C1 [Example 43, trans-3-(3-{[(1H-benzimidazol-2-yl)methyl]amino}-6-cyclopropyl-1H-pyrazolo[3,4-b]pyrazin-1-yl)cyclobutan-1-ol] | 0.0289
3 | – | – | > 20 | c1ccc2[nH]c(CNc3nn(C4C[C@H]5CC[C@@H](C4)O5)c4nc(C5CC5)cnc34)nc2c1 (stereo partly drawn) [Example 45, exo/endo-N-[(1H-benzimidazol-2-yl)methyl]-6-cyclopropyl-1-(8-oxabicyclo[3.2.1]octan-3-yl)-1H-pyrazolo[3,4-b]pyrazin-3-amine] | 0.0076
4 | – | – | > 20 | OC[C@H]1C[C@H](n2nc(NCc3nc4ccccc4[nH]3)c3ncc(C4CC4)nc32)C1 [Example 46, [trans-3-(3-{[(1H-benzimidazol-2-yl)methyl]amino}-6-cyclopropyl-1H-pyrazolo[3,4-b]pyrazin-1-yl)cyclobutyl]methanol] | 0.00402
5 | – | – | > 20 | OC[C@H]1C[C@@H](n2nc(NCc3nc4ccccc4[nH]3)c3ncc(C4CC4)nc32)C1 [Example 47, [cis-3-(3-{[(1H-benzimidazol-2-yl)methyl]amino}-6-cyclopropyl-1H-pyrazolo[3,4-b]pyrazin-1-yl)cyclobutyl]methanol] | 0.0138
6 | – | – | > 20 | O[C@H]1CC[C@H](n2nc(NCc3nc4ccccc4[nH]3)c3ncc(C4CC4)nc32)CC1 [Example 50, trans-4-(3-{[(1H-benzimidazol-2-yl)methyl]amino}-6-cyclopropyl-1H-pyrazolo[3,4-b]pyrazin-1-yl)cyclohexan-1-ol] | 0.0175
7 | – | – | > 20 | Fc1ccc2[nH]c(CNc3nn(C4CCOCC4)c4nc(C5CC5)cnc34)nc2c1 [Example 53, 6-cyclopropyl-N-[(5-fluoro-1H-benzimidazol-2-yl)methyl]-1-(oxan-4-yl)-1H-pyrazolo[3,4-b]pyrazin-3-amine] | 0.0109
8 | – | – | > 20 | COC(C)(C)CCn1nc(NCc2nc3ccccc3[nH]2)c2ncc(C3CC3)nc21 [Example 67, N-[(1H-benzimidazol-2-yl)methyl]-6-cyclopropyl-1-(3-methoxy-3-methylbutyl)-1H-pyrazolo[3,4-b]pyrazin-3-amine] | 0.078
9 | – | – | > 20 | O[C@H]1C[C@@H](Cn2nc(NCc3nc4ccccc4[nH]3)c3ncc(C4CC4)nc32)C1 [Example 71, cis-3-[(3-{[(1H-benzimidazol-2-yl)methyl]amino}-6-cyclopropyl-1H-pyrazolo[3,4-b]pyrazin-1-yl)methyl]cyclobutan-1-ol] | 0.00301
10 | – | – | > 20 | CC(C)(O)CCn1nc(NCc2nc3ccccc3[nH]2)c2ncc(C3CC3)nc21 [Example 76, 4-(3-{[(1H-benzimidazol-2-yl)methyl]amino}-6-cyclopropyl-1H-pyrazolo[3,4-b]pyrazin-1-yl)-2-methylbutan-2-ol] | 0.0074
